From US20250215012A1, “IKZF2 DEGRADERS AND USES THEREOF” (REGENTS OF THE UNIVERSITY OF MICHIGAN, priority 2022, published 2025)

Columns and labels:
[1] = molecular target: IKZF1 (Homo sapiens (Human), UniProt Q13422+Q96SW2); assay: IKZF1 HiBit Assay (HEK293T Flp-in-HiBiT-IKZF1 stable cell line); format: cell-based; settings: HEK293T Flp-in-HiBiT-IKZF1 cells, 6 hrs; for DC50: read-out: IKZF1 HiBit degradation DC50; for Dmax: HEK-293T, read-out: IKZF1 HiBit degradation Dmax
Protocol: The HiBiT protein tagging system was applied to modified Cells: modified HEK293T Flp-in-HiBiT-IKZF1 stable cell line (polyclone) via a CRISPR/Cas9—mediated insertion of the HiBiT peptide tag (Promega™) to the N-terminus of the IKZF2 gene locus (Neon™ transfection system).
Test compound from 10 mM and reference compound (CC-92480 from 50 mM and I-57 from 10 mM) are diluted at 3 folds for 11 doses. 25 nL of diluted compound is transferred to assay plates (Corning3571) using ECHO550, the final DMSO concentration @0.1%. The cells are seeded in 3000/[…]/well to compound plates. The plates are incubated for 6 hrs in TC incubator. The amount of Nano-Glo® HiBiT lytic reagent needed to perform the desired experiments is calculated. The Nano-Glo® HiBiT lytic reagent is brought to room temperature. The LgBiT protein is diluted to 1:100 and the Nano-Glo® HiBiT lytic substrate is brought to 1:50 into an appropriate volume of room temperature Nano-Glo® HiBiT lytic buffer. […] of the detection reagent (or without LgBiT) is dispensed to corresponding well according to the layout. The plate is shaked for 10 mins at room temperature. After briefly centrifuging, the plate is read on Envision. At the indicated timepoints, the Nano-Glo® HiBiT lytic detection system (Promega™) was utilized for detecting bioluminescence of the HiBiT tag in treated cells: abundance of the tag is proportionate to the level of luminescence. Following normalization to DMSO, dose-response curves were plotted (GraphPad Prism) to determine the concentration points at which 50% of HiBiT-Ikaros degradation was achieved by each compound. The extent of degradation (range of luminescence) from the highest to lowest concentration points was calculated to determine the Dm.

[2] = molecular target: IKZF2 (Homo sapiens (Human), UniProt Q96SW2+Q9UKS7); assay: IKZF2 HiBit Assay (HEK293T Flp-in-HiBiT cells); format: cell-based; settings: HEK293T Flp-in-HiBiT cells, 6 hrs; for DC50: read-out: IKZF2 HiBit degradation DC50; for Dmax: HEK-293T, read-out: IKZF2 HiBit degradation Dmax
Sequence of IKZF2 (Q9UKS7 whole entry): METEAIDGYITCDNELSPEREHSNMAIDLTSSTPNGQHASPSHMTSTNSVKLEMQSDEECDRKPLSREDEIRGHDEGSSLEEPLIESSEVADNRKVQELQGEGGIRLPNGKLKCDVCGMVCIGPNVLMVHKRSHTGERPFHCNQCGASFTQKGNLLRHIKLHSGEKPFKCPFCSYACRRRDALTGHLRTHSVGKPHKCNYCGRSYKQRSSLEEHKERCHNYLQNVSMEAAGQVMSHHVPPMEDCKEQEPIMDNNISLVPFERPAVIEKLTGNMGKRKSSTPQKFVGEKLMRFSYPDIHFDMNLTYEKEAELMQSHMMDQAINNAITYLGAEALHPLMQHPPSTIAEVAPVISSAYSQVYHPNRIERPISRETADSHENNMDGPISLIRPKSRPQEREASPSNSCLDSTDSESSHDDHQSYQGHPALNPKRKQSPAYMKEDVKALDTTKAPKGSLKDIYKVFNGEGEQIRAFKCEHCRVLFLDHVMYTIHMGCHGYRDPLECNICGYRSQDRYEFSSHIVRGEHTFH
Sequence of IKZF2 (Q96SW2 whole entry): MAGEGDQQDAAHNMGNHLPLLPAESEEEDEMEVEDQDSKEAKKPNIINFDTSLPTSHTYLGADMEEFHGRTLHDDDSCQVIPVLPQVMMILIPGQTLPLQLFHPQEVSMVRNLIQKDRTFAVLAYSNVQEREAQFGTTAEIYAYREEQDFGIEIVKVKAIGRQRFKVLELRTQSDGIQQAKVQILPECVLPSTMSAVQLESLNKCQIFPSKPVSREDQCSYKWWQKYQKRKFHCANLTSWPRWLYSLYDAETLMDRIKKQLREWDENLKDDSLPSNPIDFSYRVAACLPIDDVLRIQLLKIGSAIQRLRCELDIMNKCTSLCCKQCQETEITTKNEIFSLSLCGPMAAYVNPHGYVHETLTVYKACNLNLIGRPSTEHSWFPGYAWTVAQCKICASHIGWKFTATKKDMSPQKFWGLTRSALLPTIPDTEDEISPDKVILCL
Sequence of IKZF2 (Q16531 whole entry partner): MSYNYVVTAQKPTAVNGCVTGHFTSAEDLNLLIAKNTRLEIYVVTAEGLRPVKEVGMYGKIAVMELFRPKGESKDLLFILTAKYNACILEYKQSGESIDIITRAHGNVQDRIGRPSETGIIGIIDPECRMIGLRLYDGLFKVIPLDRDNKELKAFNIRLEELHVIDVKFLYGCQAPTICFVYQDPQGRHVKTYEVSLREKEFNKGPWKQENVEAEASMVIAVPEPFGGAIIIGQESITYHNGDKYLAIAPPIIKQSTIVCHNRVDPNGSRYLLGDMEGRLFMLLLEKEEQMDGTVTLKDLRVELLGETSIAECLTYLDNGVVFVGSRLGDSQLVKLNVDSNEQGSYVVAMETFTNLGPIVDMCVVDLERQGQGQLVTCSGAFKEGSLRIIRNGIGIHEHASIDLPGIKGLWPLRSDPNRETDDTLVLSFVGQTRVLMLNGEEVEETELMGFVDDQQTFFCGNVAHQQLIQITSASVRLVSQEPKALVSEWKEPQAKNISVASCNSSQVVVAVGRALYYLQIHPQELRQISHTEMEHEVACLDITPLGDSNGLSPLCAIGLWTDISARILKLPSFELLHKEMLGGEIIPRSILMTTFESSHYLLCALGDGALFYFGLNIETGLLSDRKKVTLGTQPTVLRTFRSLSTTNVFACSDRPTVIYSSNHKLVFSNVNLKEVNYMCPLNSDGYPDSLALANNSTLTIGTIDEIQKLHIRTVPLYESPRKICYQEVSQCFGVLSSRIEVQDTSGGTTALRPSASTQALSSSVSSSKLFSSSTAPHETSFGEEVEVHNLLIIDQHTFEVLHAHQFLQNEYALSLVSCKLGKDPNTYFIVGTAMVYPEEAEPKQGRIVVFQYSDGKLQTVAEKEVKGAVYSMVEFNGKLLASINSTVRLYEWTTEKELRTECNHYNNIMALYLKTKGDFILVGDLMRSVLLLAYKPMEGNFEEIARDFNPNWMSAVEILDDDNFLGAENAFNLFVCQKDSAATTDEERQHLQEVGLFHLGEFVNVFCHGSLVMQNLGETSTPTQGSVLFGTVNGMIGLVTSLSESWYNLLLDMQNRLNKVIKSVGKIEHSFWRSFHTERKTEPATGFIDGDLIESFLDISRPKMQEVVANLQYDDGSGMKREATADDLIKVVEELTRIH
Protocol: The HiBiT protein tagging system was applied to modified HEK293T Flp-in-HiBiT cells (polyclone) via a CRISPR/Cas9—mediated insertion of the HiBiT peptide tag (Promega™) to the N-terminus of the IKZF2 gene locus (Neon™ transfection system). Test and reference compounds are diluted from 1 mM at 3 folds for 11 doses. 25 nL of diluted compound is transferred to assay plates (Corning3570) using ECHO550, the final DMSO concentration @0.1%. The cells are seeded in 3000/[…]/well to compound plates. It is then incubated for 6 hrs in TC incubator. The amount of Nano-Glo® HiBiT lytic reagent needed to perform the desired experiments is calculated. The Nano-Glo® HiBiT lytic reagent is brought to room temperature. The LgBiT protein is diluted to 1:100 and the Nano-Glo® HiBiT lytic substrate is diluted to 1:50 into an appropriate volume of room temperature Nano-Glo® HiBiT lytic buffer. […] of the detection reagent (or without LgBiT) is dispensed to corresponding well according to the layout. The plate is then shaked for 10 mins at room temperature. After briefly centrifuge, the plate is read on Envision. At the indicated timepoints, the Nano-Glo® HiBiT lytic detection system (Promega™) was utilized for detecting bioluminescence of the HiBiT tag in treated cells: abundance of the tag is proportionate to the level of luminescence. Following normalization to DMSO, dose-response curves were plotted (GraphPad Prism) to determine the concentration points at which 50% of HiBiT-Helios degradation was achieved by each compound. The extent of degradation (range of luminescence) from the highest to lowest concentration points was calculated to determine the Dmax.

[3] = molecular target: His tagged CRBN+DDB−DLS7+CXU4 (Homo sapiens (Human), UniProt Q96SW2); assay: IC50 Measurements for Binding to CRBN/DDBI (HTRF); settings: Cy5-labeled Thalidomide probe, one hour incubation
Sequence of His tagged CRBN+DDB−DLS7+CXU4 (Q96SW2 whole entry): as the sequence (Q96SW2 whole entry) above
Sequence of His tagged CRBN+DDB−DLS7+CXU4 (Q16531 whole entry partner): as the sequence (Q16531 whole entry partner) above

Sequence of IKZF1 (Q13422 whole entry): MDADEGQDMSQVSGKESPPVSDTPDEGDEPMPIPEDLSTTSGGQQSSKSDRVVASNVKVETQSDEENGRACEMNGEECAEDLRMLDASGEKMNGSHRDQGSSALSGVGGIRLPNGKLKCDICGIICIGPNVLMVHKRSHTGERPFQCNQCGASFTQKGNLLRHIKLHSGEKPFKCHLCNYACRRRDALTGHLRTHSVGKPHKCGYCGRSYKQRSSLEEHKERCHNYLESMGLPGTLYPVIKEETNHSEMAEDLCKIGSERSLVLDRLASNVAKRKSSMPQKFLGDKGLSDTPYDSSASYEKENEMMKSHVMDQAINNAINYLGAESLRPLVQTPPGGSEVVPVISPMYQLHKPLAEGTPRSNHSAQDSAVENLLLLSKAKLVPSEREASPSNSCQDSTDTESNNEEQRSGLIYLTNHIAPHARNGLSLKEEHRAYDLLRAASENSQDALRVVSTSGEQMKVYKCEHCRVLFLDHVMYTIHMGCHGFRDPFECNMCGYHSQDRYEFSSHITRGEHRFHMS
Sequence of IKZF1 (Q96SW2 whole entry): as the sequence (Q96SW2 whole entry) above
Sequence of IKZF1 (Q16531 whole entry partner): as the sequence (Q16531 whole entry partner) above

SMILES | DC50 [1] [nM] | Dmax [1] [%] | DC50 [2] [nM] | Dmax [2] [%] | IC50 [3] [nM]
O=C1CC[C@H](N2Cc3c(ccc4c3OCC43CCN(Cc4cn(-c5ccc(Cl)cc5)nc4Cl)CC3)C2=O)C(=O)N1 [Compound B4, (S)-3-(1′-((3-chloro-1-(4-chlorophenyl)-1H-pyrazol-4-yl)methyl)-6-oxo-6,8-dihydro-2H,7H-spiro[furo[2,3-e]isoindole-3,4′-piperidin]-7-yl)piperidine-2,6-dione] | > 1000 | < 20 | 1 to 10 | 60 to 80 | 500 to 1000
O=C1CC[C@H](N2Cc3c4c(cc(Cl)c3C2=O)C2(CCN(Cc3cccc5cn[nH]c35)CC2)CO4)C(=O)N1 [Compound B18, (S)-3-(1′-((1H-indazol-7-yl)methyl)-5-chloro-6-oxo-6,8-dihydro-2H,7H-spiro[furo[2,3-e]isoindole-3,4′-piperidin]-7-yl)piperidine-2,6-dione] | > 1000 | < 20 | > 1000 | < 20 | 100 to 500
N#Cc1ccc(-n2cc(CN3CCC4(CC3)CNc3c4ccc4c3CN([C@H]3CCC(=O)NC3=O)C4=O)cn2)cc1 [Compound B58, (S)-4-(4-((7′-(2,6-dioxopiperidin-3-yl)-6′-oxo-1′,6′,7′,8′-tetrahydro-2′H-spiro[piperidine-4,3′-pyrrolo[3,4-g]indol]-1-yl)methyl)-1H-pyrazol-1-yl)benzonitrile] | > 1000 | < 20 | 1 to 10 | 40 to 60 | –
CC1CN(Cc2cccc(-c3cnn(C)c3)c2)CCC12COc1c2ccc2c1CN(C1CCC(=O)NC1=O)C2=O (stereo not drawn) [Compound B21, 3-(3′-methyl-1′-(3-(1-methyl-1H-pyrazol-4-yl)benzyl)-6-oxo-6,8-dihydro-2H,7H-spiro[furo[2,3-e]isoindole-3,4′-piperidin]-7-yl)piperidine-2,6-dione] | > 1000 | < 20 | 1 to 10 | 20 to 40 | 100 to 500
Cn1ncc2cccc(CN3CCC4(COc5c4ccc4c5CN([C@H]5CCC(=O)NC5=O)C4=O)C(F)(F)C3)c21 (stereo partly drawn) [Compound B45, (3S)-3-(3′,3′-difluoro-1′-((1-methyl-1H-indazol-7-yl)methyl)-6-oxo-6,8-dihydro-2H,7H-spiro[furo[2,3-e]isoindole-3,4′-piperidin]-7-yl)piperidine-2,6-dione] | 10 to 100 | 20 to 40 | 1 to 10 | > 80 | 100 to 500
O=C1CCC(N2Cc3c(ccc4c3OCC43CCN(Cc4ccccc4)CC3O)C2=O)C(=O)N1 (stereo not drawn) [Compound B22, 3-(1′-benzyl-3′-hydroxy-6-oxo-6,8-dihydro-2H,7H-spiro[furo[2,3-e]isoindole-3,4′-piperidin]-7-yl)piperidine-2,6-dione] | > 1000 | < 20 | 10 to 100 | 20 to 40 | 100 to 500
[2H]C([2H])(c1ccc2cn(C)nc2c1)N1CCC2(CC1)COc1c2ccc2c1CN([C@H]1CCC(=O)NC1=O)C2=O [Compound B7, (S)-3-(1′-((2-methyl-2H-indazol-6-yl)methyl-d2)-6-oxo-6,8-dihydro-2H,7H-spiro[furo[2,3-e]isoindole-3,4′-piperidin]-7-yl)piperidine-2,6-dione] | > 1000 | < 20 | 1 to 10 | 60 to 80 | 100 to 500
O=C1CCC(N2Cc3c(ccc4c3OCC43CCN(Cc4ccccc4)CC3(F)F)C2=O)C(=O)N1 (stereo not drawn) [Compound B25, 3-(1′-benzyl-3′,3′-difluoro-6-oxo-6,8-dihydro-2H,7H-spiro[furo[2,3-e]isoindole-3,4′-piperidin]-7-yl)piperidine-2,6-dione] | 1 to 10 | 20 to 40 | 1 to 10 | 60 to 80 | –
O=C1CC[C@H](N2Cc3c(ccc4c3OCC43CCN(Cc4cnn(CC5CCS(=O)(=O)CC5)c4)CC3(F)F)C2=O)C(=O)N1 (stereo partly drawn) [Compound B47, (3S)-3-(1′-((1-((1,1-dioxidotetrahydro-2H-thiopyran-4-yl)methyl)-1H-pyrazol-4-yl)methyl)-3′,3′-difluoro-6-oxo-6,8-dihydro-2H,7H-spiro[furo[2,3-e]isoindole-3,4′-piperidin]-7-yl)piperidine-2,6-dione] | > 1000 | < 20 | 10 to 100 | 60 to 80 | –
O=C1CC[C@H](N2Cc3c(ccc4c3OCC43CCN(Cc4cnn(CC5CCOCC5)c4)CC3)C2=O)C(=O)N1 [Compound B6, (S)-3-(6-oxo-1′-((1-((tetrahydro-2H-pyran-4-yl)methyl)-1H-pyrazol-4-yl)methyl)-6,8-dihydro-2H,7H-spiro[furo[2,3-e]isoindole-3,4′-piperidin]-7-yl)piperidine-2,6-dione] | > 1000 | < 20 | 1 to 10 | 60 to 80 | –
Cn1cc(-c2cccc(CN3CCC4(CC3)CNc3c4ccc4c3CN([C@H]3CCC(=O)NC3=O)C4=O)c2)cn1 [Compound B57, (S)-3-(1-(3-(1-methyl-1H-pyrazol-4-yl)benzyl)-6′-oxo-1′,2′,6′,8′-tetrahydro-7′H-spiro[piperidine-4,3′-pyrrolo[3,4-g]indol]-7′-yl)piperidine-2,6-dione] | > 1000 | < 20 | 10 to 100 | 60 to 80 | –
O=C1CC[C@H](N2Cc3c(ccc4c3OC[C@@]43CCN(Cc4cccc(-c5cnn(C6COC6)c5)c4)CC3(F)F)C2=O)C(=O)N1 [Compound B54, (S)-3-((R)-3′,3′-difluoro-1′-(3-(1-(oxetan-3-yl)-1H-pyrazol-4-yl)benzyl)-6-oxo-6,8-dihydro-2H,7H-spiro[furo[2,3-e]isoindole-3,4′-piperidin]-7-yl)piperidine-2,6-dione] | > 1000 | 20 to 40 | 1 to 10 | 60 to 80 | –
O=C1CCC(N2Cc3c(ccc4c3OCC43CCN(Cc4cccc5cn[nH]c45)CC3O)C2=O)C(=O)N1 (stereo not drawn) [Compound B24, 3-(1′-((1H-indazol-7-yl)methyl)-3′-hydroxy-6-oxo-6,8-dihydro-2H,7H-spiro[furo[2,3-e]isoindole-3,4′-piperidin]-7-yl)piperidine-2,6-dione] | > 1000 | < 20 | 10 to 100 | 60 to 80 | –
O=C1CC[C@@H](N2Cc3c(ccc4c3OCC43CCN(Cc4cccc(-c5cnn(C6COC6)c5)c4)CC3)C2=O)C(=O)N1 [Compound B15, (R)-3-(1′-(3-(1-(oxetan-3-yl)-1H-pyrazol-4-yl)benzyl)-6-oxo-6,8-dihydro-2H,7H-spiro[furo[2,3-e]isoindole-3,4′-piperidin]-7-yl)piperidine-2,6-dione] | > 1000 | < 20 | 1 to 10 | > 80 | –
O=C1CC[C@H](N2Cc3c(ccc4c3NCC43CCN(Cc4ccccc4)CC3)C2=O)C(=O)N1 [Compound B56, (S)-3-(1-benzyl-6′-oxo-1′,2′,6′,8′-tetrahydro-7′H-spiro[piperidine-4,3′-pyrrolo[3,4-g]indol]-7′-yl)piperidine-2,6-dione] | > 1000 | < 20 | 10 to 100 | 40 to 60 | –
